EC50 data for 12 compounds are collected here from BindingDB's records for doi:10.1021/jm000455z (Kissei Pharmaceutical, 2001).

pEC50: −log10 of the molar value.

A short description of the assay: Agonistic activity towards beta-3 adrenoceptor. Mean concentration required to produce 50% relaxation of detrusor before the addition in the ferret detrusor.
The pEC50 is the negative decadic logarithm of the EC50, by convention in mol/L. Read a low pEC50 as a large EC50. `C[C@H](NCCc1ccc(NC(C)(C)C(=O)O)cc1Cl)[C@H](O)c1ccc(O)cc1`: the pEC50 was 8.25.

`C[C@H](NCCc1ccc(NCC(=O)O)cc1Cl)[C@H](O)c1ccc(O)cc1` had a pEC50 of 8.14. The pEC50 values of the last two compounds are within 0.2 log units of each other.

`C[C@H](NCCc1ccc(NCC(=O)O)c(Cl)c1Cl)[C@H](O)c1ccc(O)cc1` gave a pEC50 of 6.34.

In turn, `C[C@H](NCCc1ccc(NCC(=O)O)cc1)[C@H](O)c1ccc(O)cc1` had a pEC50 of 7.62.

`C[C@H](NCCc1cc(Cl)c(NCC(=O)O)cc1Cl)[C@H](O)c1ccc(O)cc1` showed a pEC50 of 7.21.

`C[C@H](NCCc1ccc(NCC(=O)O)c(I)c1)[C@H](O)c1ccc(O)cc1` showed a pEC50 of 6.09.

On to `C[C@H](NCCc1ccc(N(C)CC(=O)O)c(Cl)c1)[C@H](O)c1ccc(O)cc1`, for which the pEC50 is 7.96.

On to `C[C@H](NCCc1ccc(NCC(=O)O)c(Cl)c1)[C@H](O)c1ccc(O)cc1`, for which the pEC50 was 9.03.

Take `C[C@H](NCCc1ccc(NCC(=O)O)c(Br)c1)[C@H](O)c1ccc(O)cc1`: the pEC50 was 6.24.

Regarding `C[C@H](NCCc1cc(Br)c(NCC(=O)O)c(Br)c1)[C@H](O)c1ccc(O)cc1`, the pEC50 was 7.09.

In the case of `C[C@H](NCCc1ccc(N(C)CC(=O)O)cc1)[C@H](O)c1ccc(O)cc1`, the pEC50 is 7.28. The pEC50 values of the last two compounds are within 0.2 log units of each other.

On to `C[C@H](NCCc1cc(Cl)c(N(C)CC(=O)O)c(Cl)c1)[C@H](O)c1ccc(O)cc1`, for which the pEC50 was 6.80. Compared with the last compound, the pEC50 is 0.48 log units lower.
